Results as given in US12637433B2, “Histone deacetylase inhibitors” (THE UNIVERSITY OF QUEENSLAND, priority 2020, dated 2026).

Molecular target: T1, human HDAC7 enzyme (Homo sapiens, UniProt Q8WUI4)
T1 construct: purchased Reaction Biology Corp
Assay: Human HDAC7 enzyme assay (Class IIa HDACs)
Type: biochemical
Conditions: Table 8; recombinant human HDAC7

T1 sequence (Q8WUI4 whole entry): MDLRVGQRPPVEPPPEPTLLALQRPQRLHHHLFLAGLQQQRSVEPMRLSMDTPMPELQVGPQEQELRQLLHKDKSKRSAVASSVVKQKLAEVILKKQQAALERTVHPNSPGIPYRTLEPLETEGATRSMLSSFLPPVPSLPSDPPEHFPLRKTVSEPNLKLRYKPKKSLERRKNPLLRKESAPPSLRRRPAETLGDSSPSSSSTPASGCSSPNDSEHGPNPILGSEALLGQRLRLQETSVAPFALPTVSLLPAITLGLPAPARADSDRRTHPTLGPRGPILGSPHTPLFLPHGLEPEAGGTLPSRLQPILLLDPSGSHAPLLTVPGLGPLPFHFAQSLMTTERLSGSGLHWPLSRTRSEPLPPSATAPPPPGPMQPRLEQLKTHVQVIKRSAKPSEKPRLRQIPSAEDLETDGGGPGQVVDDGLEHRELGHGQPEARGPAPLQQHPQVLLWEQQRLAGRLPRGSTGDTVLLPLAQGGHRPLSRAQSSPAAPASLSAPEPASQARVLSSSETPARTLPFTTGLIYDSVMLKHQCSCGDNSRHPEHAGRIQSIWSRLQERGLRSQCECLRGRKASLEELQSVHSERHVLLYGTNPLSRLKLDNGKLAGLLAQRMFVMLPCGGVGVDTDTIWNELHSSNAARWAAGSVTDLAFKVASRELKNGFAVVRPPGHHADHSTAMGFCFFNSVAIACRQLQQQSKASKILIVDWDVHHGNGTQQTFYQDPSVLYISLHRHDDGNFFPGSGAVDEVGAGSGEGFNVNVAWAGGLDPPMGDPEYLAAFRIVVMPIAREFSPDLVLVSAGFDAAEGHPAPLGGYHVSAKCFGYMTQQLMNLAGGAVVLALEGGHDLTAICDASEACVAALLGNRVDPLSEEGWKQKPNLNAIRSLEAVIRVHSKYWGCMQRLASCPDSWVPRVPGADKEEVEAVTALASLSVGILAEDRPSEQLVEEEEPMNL

| SMILES | IC50 |
| --- | --- |
| O=C(NCc1ccc(C(=O)NO)c(-c2cccc(F)c2)c1)Nc1cccc2cccnc12 [Example 5] | 64 ± 12 nM |
| C[C@H](N)C(=O)NCc1ccc(C(=O)NO)c(-c2ccccc2)c1 [Example 92] | 3130 ± 1730 nM |
| O=C(NO)c1c(F)cc(CN2C(=O)c3ccccc3S2(=O)=O)cc1-c1ccccc1 [Example 57b] | 582 ± 104 nM |
| Cc1nc2ccccc2c(=O)n1Cc1ccc(C(=O)NO)c(C2CC2)c1 [Example 106] | 8660 nM |
| Nc1ccc(-c2cc(CNC(=O)Nc3cccc4cccnc34)ccc2C(=O)NO)cc1 [Example 105] | > 10000 nM |
| CC(=O)Nc1ccc(C(=O)NCc2ccc(C(=O)NO)c(-c3ccccc3)c2)cc1 [Example 20] | 101 ± 26 nM |
| CC1C(=O)Nc2ccccc2C(=O)N1Cc1ccc(C(=O)NO)c(-c2ccccc2)c1 (stereo not shown) [Example 97] | 74 ± 13 nM |
| O=C(NO)c1ccc(Nc2ccc(Cl)cc2)cc1-c1ccccc1 [Example 68] | 178 nM |
| NC(=O)c1ccc(C(=O)NCc2ccc(C(=O)NO)c(-c3ccccc3)c2)cc1 [Example 21] | 116 ± 27 nM |
| O=C(NO)c1ccc(NC(=O)C2(C(=O)Nc3ccccc3)CCC2)cc1-c1ccccc1 [Example 88] | 75 ± 23 nM |
| COC(=O)c1ccc(CNCc2ccc(C(=O)NO)c(-c3ccccc3)c2)cc1-c1ccccc1 [Example 32, N-(4-hydroxyaminocarbonyl-3-phenylbenzyl)-N-(4-methoxycarbonyl-3-phenylbenzyl)amine] | 137 ± 30 nM |
| O=C(NO)c1ccc(NC(=O)C2(C(=O)Nc3ccccc3)CC2)cc1-c1ccccc1 [Example 87] | 241 nM |
| O=C(NO)c1ccc(NC(=O)C2(c3ccc4ccccc4c3)CCOCC2)cc1-c1ccccc1 [Example 93] | 1590 nM |
| O=C(NO)c1ccc(CNCc2ccc[nH]2)cc1-c1ccccc1 [Example 95] | 914 ± 204 nM |
| Cc1ccc(Nc2ccc(C(=O)NO)c(-c3ccccc3)c2)cc1 [Example 76] | 81 ± 19 nM |
| Cc1cccc(-c2cc(CNC(=O)Nc3cccc4cccnc34)ccc2C(=O)NO)c1 [Example 10] | > 10000 nM |
| O=C(O)c1ccc(Nc2ccc(C(=O)NO)c(-c3ccccc3)c2)cc1 [Example 74] | 68 ± 15 nM |
| O=C(NO)c1ccc(Nc2ccc(C(F)(F)F)cc2)cc1-c1ccccc1 [Example 69] | 578 nM |

Second part, the compound after the results:

| IC50 | SMILES |
| --- | --- |
| 88 nM | O=C(NO)c1ccc(Nc2ccc(F)cc2)cc1-c1ccccc1 [Example 67] |
| 323 nM | COc1ccc(C(=O)Nc2ccc(C(=O)NO)c(-c3ccccc3)c2)cc1 [Example 63] |
| 431 nM | Cc1ccc(C(=O)Nc2ccc(C(=O)NO)c(-c3ccccc3)c2)cc1 [Example 62] |
| 322 ± 109 nM | CC1C(=O)NC(Cc2ccccc2)C(=O)N1Cc1ccc(C(=O)NO)c(-c2ccccc2)c1 (mixture of isomers) [Example 96] |
| 658 ± 208 nM | O=C(O)c1ccc(CNCc2ccc(C(=O)NO)c(-c3ccccc3)c2)cc1-c1ccccc1 [Example 33, N-(4-hydroxyaminocarbonyl-3-phenylbenzyl)-N-(4-hydroxycarbonyl-3-phenylbenzyl)amine] |
| 1470 ± 426 nM | O=C(NO)c1ccc(CNCc2ccccc2)cc1-c1ccccc1 [Example 30, 5-((benzylamino)methyl)-N-hydroxy-[1,1′-biphenyl]-2-carboxamide] |
| 238 ± 86 nM | O=C(Cc1c[nH]c2ccccc12)NCc1ccc(C(=O)NO)c(-c2ccccc2)c1 [Example 25] |
| 196 ± 66 nM | CCCCCCNC(=O)NCc1ccc(C(=O)NO)c(-c2ccccc2)c1 [Example 29] |
| 925 ± 865 nM | O=C(NCc1ccc(C(=O)NO)c(-c2ccccc2)c1)c1ccccc1NC(=O)C(F)(F)F [Example 22] |
| 54 ± 7 nM | CC(C)(C)OC(=O)c1ccc(Nc2ccc(C(=O)NO)c(-c3ccccc3)c2)cc1 [Example 75] |
| 125 ± 22 nM | O=C(NO)c1ccc(CNCc2ccc(C(=O)NO)c(-c3ccccc3)c2)cc1-c1ccccc1 [Example 31, bis(4-hydroxyaminocarbonyl-3-phenylbenzyl)amine] |
| 175 ± 26 nM | O=C(NO)c1ccc(Oc2ccc(F)cc2)cc1-c1ccccc1 [Example 80] |
| 104 ± 21 nM | O=C(NCc1ccc(C(=O)NO)c(-c2ccccc2)c1)Nc1ccccc1 [Example 28] |
